{"source": "patent US20240277651A1", "about": "“MIXED GLYCEROL ESTER COMPOSITION” (priority 2021, published 2024)", "origin": "cited, not measured here", "tested_on": "pathogenic, gram-positive bacteria", "conditions": "Skrivanova et al, Veterinarni Medicina, 51, 2006"}
{"smiles": "CCCCCCCCCCCC(=O)OCC(O)CO", "note": "(stereo not shown) [monolaurin]", "values": [{"measurement": "Inhibitory action on pathogenic, gram-positive bacteria", "value": "inhibitory action"}]}
